Measurements published in ChEMBL document CHEMBL1201862, “PubChem BioAssay data set” (2004).
Activity calls are given as the source filed them.

Legend:
[1] = biological target: Glucose-6-phosphate 1-dehydrogenase (Homo sapiens, UniProt P11413); assay: human G6PD enzyme inhibitors, dose response, selectivity assay for P. falciparum G6PD inhibitor project, biochemical, fluorescence (AID 504792); type: functional
Cytochrome P450 2D6 [2] = biological target: T1, Cytochrome P450 2D6 (Homo sapiens, UniProt P10635);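 further: CYP2D6 member of a cytochrome P450 panel assay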
[3] = biological target: T2, High affinity choline transporter 1 (Homo sapiens, UniProt Q9GZV3); assay: CHT inhibitors, dose response, cell-based, 5-point CRC, membrane potential dye (AID 504840); type: functional
T2 sequence (Q9GZV3 whole entry): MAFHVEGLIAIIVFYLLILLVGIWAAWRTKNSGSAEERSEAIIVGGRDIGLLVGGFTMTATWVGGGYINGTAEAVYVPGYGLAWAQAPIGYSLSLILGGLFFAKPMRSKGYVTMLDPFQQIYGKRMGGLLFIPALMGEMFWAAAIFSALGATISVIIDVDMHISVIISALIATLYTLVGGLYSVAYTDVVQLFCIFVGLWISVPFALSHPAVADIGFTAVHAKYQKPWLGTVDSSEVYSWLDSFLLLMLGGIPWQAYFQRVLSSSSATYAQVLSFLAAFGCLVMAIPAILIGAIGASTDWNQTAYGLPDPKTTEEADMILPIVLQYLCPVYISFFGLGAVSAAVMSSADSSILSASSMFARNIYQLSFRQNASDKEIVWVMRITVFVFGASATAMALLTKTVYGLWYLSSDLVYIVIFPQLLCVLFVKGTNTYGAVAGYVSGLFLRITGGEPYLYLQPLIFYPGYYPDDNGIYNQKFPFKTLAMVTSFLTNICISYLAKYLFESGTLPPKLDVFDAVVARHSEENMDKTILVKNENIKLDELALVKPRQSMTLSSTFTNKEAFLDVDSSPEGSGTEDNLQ

[4] = biological target: T3, Polyadenylate-binding protein 1 (Homo sapiens, UniProt P11940); assay: PABP1 MLLE–PAM2 interaction inhibitors, dose response, miRNA deadenylation inhibitor project, biochemical, fluorescence polarization, Cy5-PAM2 peptide, secondary (AID 602260); type: functional; settings: read-out: IC50_Mean
[5] = biological target: Disintegrin and metalloproteinase domain-containing protein 17 (Homo sapiens, UniProt P78536); assay: exosite inhibitors of ADAM17, dose response, biochemical (AID 743260)
[6] = biological target: T3, Polyadenylate-binding protein 1; assay: PABP1 MLLE–PAM2 binding inhibitor potency, dose response, biochemical, fluorescence polarization, FITC-PAM2 peptide (AID 602259); type: functional; settings: read-out: IC50_Mean
[7] = biological target: T4, Calpain-2 catalytic subunit (Sus scrofa, UniProt P43367); assay: pig calpain II inhibitor potency, dose response, biochemical, fluorogenic peptide substrate (AID 1420); type: functional
T4 sequence (P43367 whole entry): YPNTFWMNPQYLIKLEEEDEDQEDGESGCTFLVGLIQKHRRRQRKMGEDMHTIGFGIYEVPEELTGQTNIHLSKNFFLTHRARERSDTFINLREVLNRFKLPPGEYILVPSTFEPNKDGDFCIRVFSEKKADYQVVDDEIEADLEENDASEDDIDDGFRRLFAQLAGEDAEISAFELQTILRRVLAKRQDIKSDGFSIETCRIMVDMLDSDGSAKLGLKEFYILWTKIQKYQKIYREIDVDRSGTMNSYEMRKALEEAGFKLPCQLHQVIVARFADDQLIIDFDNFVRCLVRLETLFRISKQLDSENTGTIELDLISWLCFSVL

[8] = biological target: T5, Nuclear receptor subfamily 0 group B member 1 (Homo sapiens, UniProt P51843); assay: Luminescence-based cell-based high throughput dose response assay for inhibitors of the orphan nuclear receptor subfamily 0, group B, member 1 (DAX1; NR0B1). [Related pubchem assays (depositor defined):AID504766, AID504790]; type: functional
T5 sequence (P51843 whole entry): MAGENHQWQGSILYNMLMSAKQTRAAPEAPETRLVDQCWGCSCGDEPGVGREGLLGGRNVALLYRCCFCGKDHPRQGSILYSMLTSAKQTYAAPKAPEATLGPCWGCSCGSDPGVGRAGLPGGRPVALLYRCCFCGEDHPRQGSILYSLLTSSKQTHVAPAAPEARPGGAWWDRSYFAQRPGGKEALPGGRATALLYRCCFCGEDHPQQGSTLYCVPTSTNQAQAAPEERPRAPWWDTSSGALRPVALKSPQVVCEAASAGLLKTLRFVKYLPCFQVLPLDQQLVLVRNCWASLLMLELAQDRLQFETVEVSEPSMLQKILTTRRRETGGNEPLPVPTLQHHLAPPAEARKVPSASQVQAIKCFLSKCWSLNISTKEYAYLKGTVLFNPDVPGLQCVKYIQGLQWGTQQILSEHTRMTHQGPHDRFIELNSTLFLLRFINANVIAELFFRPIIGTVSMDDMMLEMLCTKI

HEK293 [9] = assay: cells; type: functional, cell-based; settings: Homo sapiens
Cytochrome P450 3A4 [10] = biological target: T6, Cytochrome P450 3A4 (Homo sapiens, UniProt P08684)
Cytochrome P450 2D6 [11] = biological target: T1, Cytochrome P450 2D6; remark: listed apart in the source
Cytochrome P450 2C19 = Cytochrome P450 2C19 (Homo sapiens, UniProt P33261); assay: Cytochrome panel assay with activity outcomes. Panel member name: p450-cyp2c19 Compounds with AC50 equal or less than 10 uM are considered active; type: functional; settings: read-out: AC50
Cytochrome P450 1A2 = biological target: T7, Cytochrome P450 1A2 (Homo sapiens, UniProt P05177);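 further: PubChem cytochrome P450 panel assay, CYP1A2 panel member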
T7 sequence (P05177 whole entry): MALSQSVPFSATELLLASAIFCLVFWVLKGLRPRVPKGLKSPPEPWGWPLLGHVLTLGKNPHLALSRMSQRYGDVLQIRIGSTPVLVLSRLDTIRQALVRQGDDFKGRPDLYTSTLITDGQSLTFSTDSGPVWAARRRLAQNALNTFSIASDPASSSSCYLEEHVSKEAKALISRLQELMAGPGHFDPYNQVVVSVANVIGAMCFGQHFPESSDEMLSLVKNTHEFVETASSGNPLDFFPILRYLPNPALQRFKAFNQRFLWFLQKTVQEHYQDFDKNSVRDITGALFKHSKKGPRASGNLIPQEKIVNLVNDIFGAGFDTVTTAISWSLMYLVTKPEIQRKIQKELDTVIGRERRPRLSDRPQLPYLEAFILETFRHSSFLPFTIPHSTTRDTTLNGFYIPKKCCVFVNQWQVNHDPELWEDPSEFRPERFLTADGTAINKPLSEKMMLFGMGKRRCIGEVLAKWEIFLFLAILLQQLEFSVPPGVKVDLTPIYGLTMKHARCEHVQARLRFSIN

HEK293 [12] = assay: cells; settings: Homo sapiens
HEK293 [13] = assay: NOD2 signaling inhibitors in MDP-stimulated cells, cell-based, uHTS, luminescence (AID 2001); type: functional; settings: Homo sapiens
[14] = biological target: T8, Microphthalmia-associated transcription factor (Homo sapiens, UniProt O75030); assay: TRPM1 promoter luciferase signal decrease, dose response, MITF inhibitor project, cell-based, SK-MEL-5, cherry-picked, set 3 (AID 493073); type: functional
T8 sequence (O75030 whole entry): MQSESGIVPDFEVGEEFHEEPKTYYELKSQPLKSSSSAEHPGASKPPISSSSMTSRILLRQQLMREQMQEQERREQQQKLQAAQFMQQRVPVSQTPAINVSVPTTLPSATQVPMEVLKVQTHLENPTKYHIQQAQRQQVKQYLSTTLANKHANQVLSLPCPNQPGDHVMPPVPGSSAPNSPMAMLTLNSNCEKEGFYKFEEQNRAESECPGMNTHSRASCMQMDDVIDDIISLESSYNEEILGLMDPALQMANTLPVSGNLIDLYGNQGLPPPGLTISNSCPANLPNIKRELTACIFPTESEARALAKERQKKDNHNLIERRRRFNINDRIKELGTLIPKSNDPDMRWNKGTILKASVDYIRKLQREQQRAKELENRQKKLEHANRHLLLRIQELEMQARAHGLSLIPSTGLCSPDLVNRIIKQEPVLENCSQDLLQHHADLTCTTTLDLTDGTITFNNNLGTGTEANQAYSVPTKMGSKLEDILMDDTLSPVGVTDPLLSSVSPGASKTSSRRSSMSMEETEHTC

[15] = biological target: Nucleotide-binding oligomerization domain-containing protein 1 (Homo sapiens, UniProt Q9Y239); assay: NOD1 signaling inhibitors, SAR follow-up, revised (AID 2333); type: functional
HEK293 [16] = assay: cells; type: functional, cell-based; settings: Homo sapiens; remark: listed apart in the source
Tumor necrosis factor = Tumor necrosis factor (Homo sapiens, UniProt P01375); assay: TNFa-triggered NF-kB activation inhibitors, SAR follow-up, cell-based, revised (AID 2337); type: functional
HEK293 [17] = assay: cells; type: functional, cell-based; settings: Homo sapiens; remark: listed apart in the source
HEK293 [18] = assay: NOD1 signaling inhibitors, primary screen, cell-based, luminescence, uHTS (AID 1578); type: functional; settings: Homo sapiens
Cytochrome P450 3A4 [19] = biological target: T6, Cytochrome P450 3A4; settings: Potency
[20] = biological target: Voltage-gated inwardly rectifying potassium channel KCNH2 (Homo sapiens, UniProt Q12809); settings: Potency;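 further: confirmatory quantitative high-throughput screen measuring inhibition of hERG channel activity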
Sequence of Voltage-gated inwardly rectifying potassium channel KCNH2 (Q12809 whole entry): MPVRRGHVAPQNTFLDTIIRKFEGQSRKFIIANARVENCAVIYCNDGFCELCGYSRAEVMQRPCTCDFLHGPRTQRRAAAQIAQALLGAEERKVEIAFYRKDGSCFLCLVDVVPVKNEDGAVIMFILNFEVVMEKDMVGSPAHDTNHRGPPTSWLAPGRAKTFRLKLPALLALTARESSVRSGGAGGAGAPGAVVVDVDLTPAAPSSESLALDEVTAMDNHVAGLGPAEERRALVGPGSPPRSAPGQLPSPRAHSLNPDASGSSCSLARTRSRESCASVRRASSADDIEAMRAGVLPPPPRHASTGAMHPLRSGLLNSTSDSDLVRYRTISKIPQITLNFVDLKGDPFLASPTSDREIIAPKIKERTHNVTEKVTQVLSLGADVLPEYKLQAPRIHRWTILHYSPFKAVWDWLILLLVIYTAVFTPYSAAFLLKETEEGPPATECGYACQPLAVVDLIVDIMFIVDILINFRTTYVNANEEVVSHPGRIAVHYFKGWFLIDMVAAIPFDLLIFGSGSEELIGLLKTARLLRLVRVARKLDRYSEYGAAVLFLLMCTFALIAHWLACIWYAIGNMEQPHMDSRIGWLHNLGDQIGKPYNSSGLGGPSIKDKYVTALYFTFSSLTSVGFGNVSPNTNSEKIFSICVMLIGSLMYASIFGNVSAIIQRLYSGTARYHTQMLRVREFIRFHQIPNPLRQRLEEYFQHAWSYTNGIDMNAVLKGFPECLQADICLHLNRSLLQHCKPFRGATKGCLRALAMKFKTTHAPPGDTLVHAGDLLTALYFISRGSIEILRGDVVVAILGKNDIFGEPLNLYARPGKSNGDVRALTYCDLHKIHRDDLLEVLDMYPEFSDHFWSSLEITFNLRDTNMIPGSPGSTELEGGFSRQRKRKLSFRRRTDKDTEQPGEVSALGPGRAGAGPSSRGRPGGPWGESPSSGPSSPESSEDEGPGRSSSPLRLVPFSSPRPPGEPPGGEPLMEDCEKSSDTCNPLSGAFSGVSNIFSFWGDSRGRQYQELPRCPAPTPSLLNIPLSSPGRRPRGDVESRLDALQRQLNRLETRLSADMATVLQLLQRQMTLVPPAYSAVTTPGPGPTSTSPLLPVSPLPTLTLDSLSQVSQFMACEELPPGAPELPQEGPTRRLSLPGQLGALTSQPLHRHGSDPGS

T6 sequence (P08684 whole entry): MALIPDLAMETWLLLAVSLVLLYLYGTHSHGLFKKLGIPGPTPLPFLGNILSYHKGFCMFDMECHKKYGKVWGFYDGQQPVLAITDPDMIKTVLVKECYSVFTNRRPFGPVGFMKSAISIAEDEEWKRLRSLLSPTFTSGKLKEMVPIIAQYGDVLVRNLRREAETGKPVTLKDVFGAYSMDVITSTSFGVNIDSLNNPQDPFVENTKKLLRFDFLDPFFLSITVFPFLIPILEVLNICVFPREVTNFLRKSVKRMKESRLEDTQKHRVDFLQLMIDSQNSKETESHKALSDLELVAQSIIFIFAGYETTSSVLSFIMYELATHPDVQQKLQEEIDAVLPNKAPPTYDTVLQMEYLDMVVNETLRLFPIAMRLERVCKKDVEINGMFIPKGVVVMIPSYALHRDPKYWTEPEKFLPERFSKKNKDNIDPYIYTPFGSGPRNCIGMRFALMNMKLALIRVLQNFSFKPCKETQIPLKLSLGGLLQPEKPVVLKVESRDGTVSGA
T1 sequence (P10635 whole entry): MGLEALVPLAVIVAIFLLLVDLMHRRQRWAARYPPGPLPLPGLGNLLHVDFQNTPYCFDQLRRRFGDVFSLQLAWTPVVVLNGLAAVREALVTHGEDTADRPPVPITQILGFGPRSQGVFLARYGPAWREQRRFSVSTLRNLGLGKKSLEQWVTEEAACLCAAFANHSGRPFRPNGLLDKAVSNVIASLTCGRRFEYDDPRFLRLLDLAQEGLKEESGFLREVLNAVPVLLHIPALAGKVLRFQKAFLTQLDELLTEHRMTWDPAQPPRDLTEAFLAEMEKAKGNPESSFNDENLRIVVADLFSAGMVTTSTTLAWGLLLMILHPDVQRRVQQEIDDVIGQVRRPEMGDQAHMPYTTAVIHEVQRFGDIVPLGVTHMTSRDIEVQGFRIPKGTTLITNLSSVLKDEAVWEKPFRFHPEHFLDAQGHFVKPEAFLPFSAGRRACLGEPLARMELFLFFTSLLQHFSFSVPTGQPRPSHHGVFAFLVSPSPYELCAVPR
Sequence of Glucose-6-phosphate 1-dehydrogenase (P11413 whole entry): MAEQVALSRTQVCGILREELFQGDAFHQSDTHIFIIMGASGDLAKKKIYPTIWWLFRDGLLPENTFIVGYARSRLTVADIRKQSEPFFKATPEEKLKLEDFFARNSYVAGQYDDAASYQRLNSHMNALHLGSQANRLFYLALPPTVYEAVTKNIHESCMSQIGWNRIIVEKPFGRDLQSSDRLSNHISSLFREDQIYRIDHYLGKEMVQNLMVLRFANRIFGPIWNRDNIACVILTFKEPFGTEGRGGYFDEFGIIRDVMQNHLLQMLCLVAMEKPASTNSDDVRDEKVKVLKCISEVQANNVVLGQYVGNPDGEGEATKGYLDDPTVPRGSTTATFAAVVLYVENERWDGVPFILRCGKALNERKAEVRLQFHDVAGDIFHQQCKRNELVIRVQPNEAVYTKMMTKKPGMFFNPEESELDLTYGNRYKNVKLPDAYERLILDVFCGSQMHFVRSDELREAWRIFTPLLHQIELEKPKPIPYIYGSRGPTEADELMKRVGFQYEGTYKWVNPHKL
T3 sequence (P11940 whole entry, the tested form may be a part): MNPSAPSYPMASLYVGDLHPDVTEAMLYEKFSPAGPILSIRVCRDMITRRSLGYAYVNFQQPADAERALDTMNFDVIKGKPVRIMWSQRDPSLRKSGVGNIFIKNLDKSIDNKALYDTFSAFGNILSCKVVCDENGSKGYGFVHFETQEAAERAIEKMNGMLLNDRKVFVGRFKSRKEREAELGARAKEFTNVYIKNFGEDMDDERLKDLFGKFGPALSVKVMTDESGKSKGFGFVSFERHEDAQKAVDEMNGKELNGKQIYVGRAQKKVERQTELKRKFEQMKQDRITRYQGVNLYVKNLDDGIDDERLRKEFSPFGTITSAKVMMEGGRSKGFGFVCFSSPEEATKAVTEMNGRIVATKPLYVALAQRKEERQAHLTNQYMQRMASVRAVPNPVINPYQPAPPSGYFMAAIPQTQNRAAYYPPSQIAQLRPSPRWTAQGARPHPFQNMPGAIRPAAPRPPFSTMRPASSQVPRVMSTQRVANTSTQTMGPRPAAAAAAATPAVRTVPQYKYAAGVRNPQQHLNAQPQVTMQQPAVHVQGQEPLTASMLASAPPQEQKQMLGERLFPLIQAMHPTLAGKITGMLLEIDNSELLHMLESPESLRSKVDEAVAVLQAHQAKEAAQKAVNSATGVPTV
Sequence of Nucleotide-binding oligomerization domain-containing protein 1 (Q9Y239 whole entry, the tested form may be a part): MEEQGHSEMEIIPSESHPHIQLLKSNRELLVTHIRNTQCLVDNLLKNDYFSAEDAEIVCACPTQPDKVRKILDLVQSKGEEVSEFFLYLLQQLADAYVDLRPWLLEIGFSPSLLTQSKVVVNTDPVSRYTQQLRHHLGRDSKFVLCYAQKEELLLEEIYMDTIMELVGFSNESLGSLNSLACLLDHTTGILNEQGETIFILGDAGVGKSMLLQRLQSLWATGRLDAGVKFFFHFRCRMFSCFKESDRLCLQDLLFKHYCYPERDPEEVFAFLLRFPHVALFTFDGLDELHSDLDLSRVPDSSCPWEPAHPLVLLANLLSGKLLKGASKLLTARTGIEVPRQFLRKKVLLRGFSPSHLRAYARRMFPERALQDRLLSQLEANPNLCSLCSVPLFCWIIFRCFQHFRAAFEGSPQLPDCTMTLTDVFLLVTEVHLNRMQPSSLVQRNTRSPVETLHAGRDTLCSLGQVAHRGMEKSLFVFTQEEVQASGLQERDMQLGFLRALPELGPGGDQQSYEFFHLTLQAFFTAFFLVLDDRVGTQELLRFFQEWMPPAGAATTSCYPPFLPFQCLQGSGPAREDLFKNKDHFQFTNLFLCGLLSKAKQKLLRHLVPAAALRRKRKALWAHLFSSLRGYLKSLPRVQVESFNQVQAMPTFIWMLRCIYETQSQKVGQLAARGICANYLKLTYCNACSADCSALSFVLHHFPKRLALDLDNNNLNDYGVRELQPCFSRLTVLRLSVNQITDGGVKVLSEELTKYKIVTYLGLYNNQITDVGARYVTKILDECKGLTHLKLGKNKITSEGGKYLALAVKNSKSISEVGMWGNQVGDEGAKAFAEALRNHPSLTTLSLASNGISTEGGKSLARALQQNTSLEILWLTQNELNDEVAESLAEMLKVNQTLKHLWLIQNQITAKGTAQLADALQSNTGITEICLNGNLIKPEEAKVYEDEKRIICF
Sequence of Cytochrome P450 2C19 (P33261 whole entry): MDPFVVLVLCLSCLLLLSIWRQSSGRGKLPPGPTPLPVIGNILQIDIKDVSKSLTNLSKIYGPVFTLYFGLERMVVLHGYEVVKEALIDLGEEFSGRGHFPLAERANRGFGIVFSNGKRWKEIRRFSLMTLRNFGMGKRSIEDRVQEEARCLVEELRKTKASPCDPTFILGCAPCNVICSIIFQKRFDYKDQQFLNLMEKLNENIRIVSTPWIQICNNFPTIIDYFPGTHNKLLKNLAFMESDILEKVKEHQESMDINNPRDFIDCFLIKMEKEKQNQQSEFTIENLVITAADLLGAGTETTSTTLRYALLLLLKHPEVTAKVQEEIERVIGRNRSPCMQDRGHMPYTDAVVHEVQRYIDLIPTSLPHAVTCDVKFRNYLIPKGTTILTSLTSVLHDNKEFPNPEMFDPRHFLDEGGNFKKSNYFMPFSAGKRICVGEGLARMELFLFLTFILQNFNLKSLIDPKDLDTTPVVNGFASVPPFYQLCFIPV
Sequence of Tumor necrosis factor (P01375 whole entry): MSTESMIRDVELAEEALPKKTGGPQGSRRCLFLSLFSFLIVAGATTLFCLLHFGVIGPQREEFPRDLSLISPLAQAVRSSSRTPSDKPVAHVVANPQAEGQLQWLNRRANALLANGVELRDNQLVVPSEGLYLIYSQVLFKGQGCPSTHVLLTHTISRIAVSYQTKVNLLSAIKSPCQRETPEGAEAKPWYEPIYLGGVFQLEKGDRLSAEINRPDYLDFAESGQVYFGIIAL

In the case of `COc1ccc(CN(C)S(=O)(=O)c2nnc(NC(=O)c3ccc(C)cc3)s2)cc1OC`, the IC50 [1] is reported as 46 µM (inactive).
For `COc1cccc(CN2C(=O)N(C(C)C)C(N(O)C(=O)NC(C)C)C2(C)C)c1OC` (stereo not drawn), the AC50 (Cytochrome P450 2D6 [2]) was “inconclusive”.
In the case of `S=c1[nH]nc(-c2sccc2OCc2ccc(Cl)cc2Cl)[nH]1`, the IC50 [3] is reported as 11.5 µM (active), the IC50 [4] is reported as > 66 µM (inactive) and the IC50 [5] is reported as > 69.5 µM (inactive). The IC50 [6] was > 66 µM (inactive) and the IC50 [7] was 10.1 µM (not active).
`N#Cc1ccc(Oc2cccc3cccnc23)c([N+](=O)[O-])c1` was tested, and the IC50 [1] was > 80 µM (inactive).
With `COCCCNC(=O)c1ccc(CN2CCc3ccccc3C2)cc1` the IC50 [8] was > 67.5 µM (inactive) and the IC50 (HEK293 [9]) was > 67.5 µM (inactive).
For `COC(=O)N1CCC2(CC1)CCN(c1ccccn1)CC2`, the AC50 (Cytochrome P450 3A4 [10]) was “inconclusive”, the AC50 (Cytochrome P450 2D6 [11]) was 10 µM (inconclusive) and the AC50 (Cytochrome P450 2C19) was 10 µM (inconclusive).
For `O=C(Oc1ccccc1)N1CCC2(CC1)CCN(c1cccc(-c3ccccc3)c1)CC2`, the AC50 (Cytochrome P450 3A4 [10]) was “inconclusive” and the AC50 (Cytochrome P450 1A2) was 12.6 µM (inconclusive).
For `O=C(c1ccc(S(=O)(=O)Cc2ccccc2Cl)c([N+](=O)[O-])c1)N1CCN(c2ccccn2)CC1`, the IC50 (HEK293 [12]) was 16.3 µM (active), the IC50 (HEK293 [13]) was 3.63 µM (active) and the AC50 [14] was 9.49 µM (active). The IC50 [15] was 4.24 µM (active), the IC50 (HEK293 [16]) was 2.81 µM (active) and the IC50 (Tumor necrosis factor) was 4.53 µM (active). For the same compound, the IC50 (HEK293 [17]) was > 20 µM (inactive) and the EC50 (HEK293 [18]) was 11.8 µM (active).
In the case of `Nc1ccccc1C(=O)OCCc1ccccc1`, the AC50 (Cytochrome P450 3A4 [19]) is reported as 12.6 µM (inconclusive) and the AC50 [20] is reported as 39.8 µM (inconclusive).
In the case of `O=C(/C=C/c1ccc2c(c1)OCCO2)c1ccc(O)cc1`, the IC50 [8] is reported as > 67.6 µM (inactive) and the IC50 (HEK293 [9]) is reported as > 2.5 µM (active).
In the case of `CCc1c(C)[nH]c2c1C(=O)[C@H](CN1CCOCC1)CC2.Cl` [MOLINDONE HYDROCHLORIDE], the AC50 (Cytochrome P450 2D6 [2]) is reported as “inactive”.
